Results: PMC9530963, “A cathelicidin antimicrobial peptide from Hydrophis cyanocinctus inhibits Zika virus infection by downregulating expression of a viral entry factor” (The Journal of Biological Chemistry, 2022)

Assays:
ZIKV [1] = test: Antiviral activity of Hc-CATH against ZIKV in vitro (peptide present during and after infection); type: cell-based, ZIKV strain PRVABC59
Experimental: Figure 1 Hc-CATH inhibits ZIKV infection in vitro. A, schematic diagram of B–H. B–H, protective effect of Hc-CATH on ZIKV infection in vitro. Vero cells were seeded in 24-well plates (5 × 10^4 cells/well). Cells were infected with ZIKV (MOI = 1), and Hc-CATH (1.25, 2.5, and 5 μM), AC5 (2.5 and 5 μM), LL-37 (2.5 μM), or same volume of PBS (peptide solvent) was added and incubated at 37 °C for 2 h. Then the cells were washed with PBS and transferred with fresh DMEM containing 2% FBS and the same concentration of peptides. After culture at 37 °C for 48 h, image of ZIKV-caused cytopathic effect was taken (B, the scale bar represents 200 μm), the percentage of ZIKV-caused cytopathic effect was quantified by CCK-8 (C), intracellular ZIKV RNA (D), NS3 protein (E, upper panel: immunoblots, lower panel: ratios analyzed by ImageJ), E protein (F, the scale bar represents 50 μm), and extracellular ZIKV titer (G and H) was tested by qPCR, Western blot, immunofluorescence staining, and plaque-forming assay, respectively. The raw data files used in the creation of G are presented in Fig. S3. ∗p < 0.05, ∗∗p < 0.01, ∗∗∗p < 0.001, ns, not significant.
Vero cells were seeded in 24-well plates (5 × 10^4 cells/well). After cells were adhered to plates, cells were incubated with ZIKV (multiplicity of infection [MOI] = 1) in the presence of noncytotoxic concentration of Hc-CATH, AC5 (positive control), LL-37 (positive control), or PBS (solvent of peptide). After incubation at 37 °C for 2 h, the culture media were removed, cells were washed with PBS and transferred with fresh culture media containing 2% FBS, and Hc-CATH, AC5, LL-37, or PBS was supplemented to each well. After incubation at 37 °C for 48 h, cytopathic effect was observed by microscopy, and Cell Counting Kit-8 was applied to determine the percent of cytopathic effect. The percent of cytopathic effect was calculated as (Asham –Atreatment)/Asham × 100 (where Asham represents the absorbance of uninfected cells, Atreatment represents the absorbance of PBS- or peptide-treated cells post ZIKV infection). The intracellular ZIKV RNA, NS3 protein, E protein, and extracellular ZIKV titer were tested by qPCR, WB, IF, and plaque-forming assay, respectively ([28]).

AXL = AXL level in U251 cells (Western blot, immunofluorescence); type: cell-based, Homo sapiens; details: 1.25, 2.5, and 5 μM, 24 h, with and without ZIKV challenge
Experimental: Figure 5 Hc-CATH downregulates AXL in U251 cell.A, schematic diagram of B and C. B, U251 cells were seeded in 24-well plates (5 × 10^4 cells/well) and cultured in DMEM containing 2% FBS. Hc-CATH (1.25, 2.5, and 5 μM) or same volume of PBS (peptide solvent) was added to cells and incubated at 37 °C for 24 h. The level of AXL was tested by Western blot. C, U251 cells were seeded in 8-well cover slip chambers (5 × 10^4 cells/well) and cultured in DMEM containing 2% FBS. Hc-CATH (1.25, 2.5, and 5 μM) or PBS was added to cells and incubated at 37 °C for 24 h. The level of AXL was tested by immunofluorescence staining. The scale bar represents 50 μm. D, schematic diagram of E–G. E–G, U251 cells were seeded in 24-well plates (5 × 10^4 cells/well) and cultured in DMEM containing 2% FBS. Hc-CATH (1.25, 2.5, and 5 μM) or PBS was added to cells and incubated at 37 °C for 2 h. Cells were washed with PBS and incubated with ZIKV (MOI = 1). After incubation at 37 °C for 2 h, cells were washed with PBS and cultured in DMEM containing 2% FBS.
The effect of Hc-CATH on AXL was further confirmed in A549 and U251 cells. A549 or U251 cells were incubated with Hc-CATH (1.25, 2.5, and 5 μM) or PBS at 37 °C for 24 h, and the level of AXL was detected by WB and IF, respectively. Upon ZIKV challenge, A549 or U251 cells were incubated with Hc-CATH (1.25, 2.5, and 5 μM) or PBS at 37 °C for 2 h. […]

ZIKV [2] = test: ZIKV replication stage, U251 cells (peptide added after infection); type: cell-based, ZIKV strain PRVABC59; details: 2.5 μM after ZIKV infection, 48 h; NS3 Western blot
Experimental: B–I, Vero (B–G), A549 (H), or U251 (I) cells were incubated with ZIKV (MOI = 1) at 37 °C for 2 h, washed with PBS, and transferred with fresh DMEM containing 2% FBS and Hc-CATH (2.5 μM), AC5 (2.5 μM), LL-37 (2.5 μM), or PBS (solvent of peptide). After culture at 37 °C for 48 h, intracellular ZIKV RNA (B), NS3 protein (C, D, H, and I), E protein level (E, the scale bar represents 50 μm), and extracellular ZIKV titer (F and G) were detected by qPCR, Western blot, immunofluorescence staining, and plaque-forming assay, respectively.
Vero cells were incubated with ZIKV (MOI = 1) at 37 °C for 2 h, washed three times with PBS, and transferred with fresh DMEM containing 2% FBS and Hc-CATH (2.5 μM), AC5 (2.5 μM), LL-37 (2.5 μM), or PBS. After culture at 37 °C for 48 h, intracellular ZIKV RNA, NS3 protein, E protein, and extracellular ZIKV titer were detected by qPCR, WB, IF, and plaque-forming assay, respectively. The effect of Hc-CATH on ZIKV replication stage was further tested in A549 and U251 cells under the same condition, and intracellular ZIKV NS3 protein was detected by WB.

## KFFKRLLKSVRRAVKKFRKKPRLIGLSTLL [Hc-CATH, cathelicidin antimicrobial peptide identified from the sea snake Hydrophis cyanocinctus]
ZIKV [1]; 5 μM, Vero cells, ZIKV MOI = 1, 48 h, Western blot, ImageJ
  reduction of NS3 protein: ~67.4%
ZIKV [1]; 5 μM, Vero cells, ZIKV MOI = 1, 48 h, plaque-forming assay
  reduction of extracellular ZIKV particles: ~71.6%
ZIKV [1]; 5 μM, Vero cells, ZIKV MOI = 1, 48 h, qPCR
  reduction of intracellular ZIKV RNA: ~52.7%
ZIKV [1]; 5 μM, Vero cells, ZIKV MOI = 1, peptide during 2 h infection and 48 h culture, CCK-8
  reduction of ZIKV-caused cytopathic effect: about 70.3%
ZIKV [1]; Vero cells (Fig. 1)
  anti-ZIKV efficacy in vitro compared with positive peptides: weaker than that of AC5 and LL-37
AXL
  level of AXL in U251 cells: effectively decreased the level of AXL
ZIKV [2]
  ZIKV infection in U251 cells, peptide added after infection: did not inhibit ZIKV infection
